Values joined by “and” are separate entries in the source; they are usually repeats but may differ in a detail not shown here. Equal values may be shown once.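 A five-concentration, 48-hour dose response in 96-well plates underlies each endpoint, interpolated linearly between surrounding concentrations. The concentration for 50% growth inhibition is given as GI50.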 Active and inactive are the calls of the source. Cut-off read from the data, not from the text of the source: active = GI50 up to about 1.1 µM and inactive = higher.
Key:
Experiment in all cases: NCI-60 cell line screen, 48 h
K562 = tested on: K562
A498 = tested on: A498
NCI/ADR-RES = tested on: NCI/ADR-RES
MDA-N = tested on: MDA-N
UO-31 = tested on: UO-31
CCRF-CEM = tested on: CCRF-CEM
MOLT-4 = tested on: MOLT-4
HCC 2998 = tested on: HCC 2998
PC-3 = tested on: PC-3
HOP-92 = tested on: HOP-92
RXF 393 = tested on: RXF 393
EKVX = tested on: EKVX
SNB-19 = tested on: SNB-19
ACHN = tested on: ACHN
OVCAR-5 = tested on: OVCAR-5
T47D = tested on: T47D
MDA-MB-435 = tested on: MDA-MB-435
RPMI-8226 = tested on: RPMI-8226
OVCAR-8 = tested on: OVCAR-8

CC(CCC(=O)O)[C@H]1CCC2[C@H]3C(CC(=O)[C@@]21C)[C@@]1(C)CCC(O)C[C@H]1C[C@@H]3O (some centres undefined)
GI50 (K562): > 100 µM (inactive)
GI50 (A498): > 100 µM (inactive)
GI50 (NCI/ADR-RES): > 100 µM (inactive)
GI50 (MDA-N): > 100 µM (inactive)
GI50 (UO-31): > 100 µM (inactive)
GI50 (CCRF-CEM): > 100 µM (inactive)
GI50 (MOLT-4): > 100 µM (inactive)
GI50 (HCC 2998): > 100 µM (inactive)
GI50 (PC-3): > 100 µM (inactive)
GI50 (HOP-92): > 100 µM (inactive)
GI50 (RXF 393): > 100 µM (inactive)
GI50 (EKVX): > 100 µM (inactive)
GI50 (SNB-19): > 100 µM (inactive)
GI50 (ACHN): > 100 µM (inactive)
GI50 (OVCAR-5): > 100 µM (inactive)
GI50 (T47D): > 100 µM (inactive)
GI50 (MDA-MB-435): > 100 µM (inactive)
GI50 (RPMI-8226): > 100 µM (inactive)
GI50 (OVCAR-8): > 100 µM (inactive)

COc1ccc2c(c1)-c1nn(CCN(C)C)c3ccc(C(=O)NCCCN(C)CCCNC(=O)c4ccc5c6c(c7cc(OC)ccc7nc46)NN5CCN(C)C)c(c13)N2
GI50 (K562): 0.0128 µM (active)
GI50 (A498): 0.0859 µM (active)
GI50 (NCI/ADR-RES): 1.7 µM (inactive)
GI50 (MDA-N): 0.0361 µM (active)
GI50 (UO-31): 0.183 µM (active)
GI50 (CCRF-CEM): < 0.01 µM (active)
GI50 (MOLT-4): < 0.01 µM (active)
GI50 (HCC 2998): 0.045 µM (active)
GI50 (PC-3): 0.0208 µM (active)
GI50 (HOP-92): 0.0478 µM (active)
GI50 (RXF 393): 0.0366 µM (active)
GI50 (EKVX): 0.143 µM (active)
GI50 (SNB-19): 0.0159 µM (active)
GI50 (ACHN): 0.0607 µM (active)
GI50 (OVCAR-5): 0.126 µM (active)
GI50 (T47D): 0.158 µM (active)
GI50 (MDA-MB-435): 0.0401 µM (active)
GI50 (RPMI-8226): 0.0105 µM (active)
GI50 (OVCAR-8): 0.0133 µM (active)

O=C(/C=C/c1ccccc1)c1ccccn1
GI50 (A498): 13 µM (inactive) and 17.5 µM (inactive)
GI50 (NCI/ADR-RES): 22.2 µM (inactive) and 28.4 µM (inactive)
GI50 (MDA-N): 16.9 µM (inactive) and 27.2 µM (inactive)
GI50 (UO-31): 17.3 µM (inactive) and 20.6 µM (inactive)
GI50 (CCRF-CEM): 10 µM (inactive) and 17.1 µM (inactive)
GI50 (MOLT-4): 23.8 µM (inactive)
GI50 (HCC 2998): 13.8 µM (inactive) and 19.3 µM (inactive)
GI50 (PC-3): 19.1 µM (inactive) and 21.1 µM (inactive)
GI50 (HOP-92): 19.1 µM (inactive)
GI50 (RXF 393): 19.2 µM (inactive) and 18.6 µM (inactive)
GI50 (EKVX): 22 µM (inactive) and 18.1 µM (inactive)
GI50 (ACHN): 15.5 µM (inactive) and 16.9 µM (inactive)
GI50 (T47D): 23.8 µM (inactive) and 13 µM (inactive)
GI50 (MDA-MB-435): 26.5 µM (inactive) and 18.9 µM (inactive)
GI50 (OVCAR-8): 17.6 µM (inactive) and 25.1 µM (inactive)

COc1ccccc1/[N+]([O-])=C/c1ccccc1OC(=S)S
GI50 (K562): 29.5 µM (inactive)
GI50 (A498): 32.4 µM (inactive)
GI50 (NCI/ADR-RES): 30.6 µM (inactive)
GI50 (MDA-N): 17.7 µM (inactive)
GI50 (UO-31): 31 µM (inactive)
GI50 (MOLT-4): 27.5 µM (inactive)
GI50 (HCC 2998): 14.7 µM (inactive)
GI50 (PC-3): 34 µM (inactive)
GI50 (HOP-92): 19 µM (inactive)
GI50 (RXF 393): 33.7 µM (inactive)
GI50 (EKVX): 30.4 µM (inactive)
GI50 (SNB-19): 99.3 µM (inactive)
GI50 (ACHN): 49.3 µM (inactive)
GI50 (OVCAR-5): 96.2 µM (inactive)
GI50 (T47D): 17.6 µM (inactive)
GI50 (MDA-MB-435): 16.7 µM (inactive)
GI50 (RPMI-8226): 21.8 µM (inactive)
GI50 (OVCAR-8): 21.7 µM (inactive)

COc1ccc(-c2cc(=O)c3c(O)cc(O)cc3o2)cc1OC
GI50 (K562): 92.7 µM (inactive)
GI50 (A498): 4.57 µM (inactive)
GI50 (NCI/ADR-RES): 56.8 µM (inactive)
GI50 (MDA-N): > 100 µM (inactive)
GI50 (UO-31): 36.7 µM (inactive)
GI50 (CCRF-CEM): 41.8 µM (inactive)
GI50 (MOLT-4): 44 µM (inactive)
GI50 (HCC 2998): > 100 µM (inactive)
GI50 (PC-3): 55.1 µM (inactive)
GI50 (HOP-92): 2.3 µM (inactive)
GI50 (RXF 393): 46.3 µM (inactive)
GI50 (EKVX): 83.8 µM (inactive)
GI50 (SNB-19): 26.6 µM (inactive)
GI50 (ACHN): 35.5 µM (inactive)
GI50 (OVCAR-5): > 100 µM (inactive)
GI50 (T47D): 71.9 µM (inactive)
GI50 (MDA-MB-435): > 100 µM (inactive)
GI50 (RPMI-8226): 64.9 µM (inactive)

C=CCC1(O)c2cccc(O)c2C(=O)c2cccc(O)c21 (centres undefined)
GI50 (K562): 6.71 µM (inactive)
GI50 (A498): 13.3 µM (inactive)
GI50 (NCI/ADR-RES): 11.2 µM (inactive)
GI50 (MDA-N): 8.22 µM (inactive)
GI50 (UO-31): 15.4 µM (inactive)
GI50 (MOLT-4): 11.3 µM (inactive)
GI50 (HCC 2998): 11 µM (inactive)
GI50 (PC-3): 16.9 µM (inactive)
GI50 (HOP-92): 17.5 µM (inactive)
GI50 (RXF 393): 15.7 µM (inactive)
GI50 (EKVX): 17.4 µM (inactive)
GI50 (ACHN): 22.8 µM (inactive)
GI50 (OVCAR-5): 22.5 µM (inactive)
GI50 (T47D): 4.12 µM (inactive)
GI50 (MDA-MB-435): 9.38 µM (inactive)
GI50 (RPMI-8226): 11.5 µM (inactive)
GI50 (OVCAR-8): 25.8 µM (inactive)

O=C1Nc2ccccc2/C1=N/Nc1nc(-c2cccc([N+](=O)[O-])c2)cs1
GI50 (A498): 21.8 µM (inactive)
GI50 (NCI/ADR-RES): 15.3 µM (inactive)
GI50 (MDA-N): 31.1 µM (inactive)
GI50 (UO-31): 55.3 µM (inactive)
GI50 (CCRF-CEM): 32.8 µM (inactive)
GI50 (MOLT-4): 31.5 µM (inactive)
GI50 (HCC 2998): 18.1 µM (inactive)
GI50 (PC-3): 28.2 µM (inactive)
GI50 (HOP-92): 20.1 µM (inactive)
GI50 (RXF 393): 29.5 µM (inactive)
GI50 (EKVX): 22.5 µM (inactive)
GI50 (SNB-19): 26.7 µM (inactive)
GI50 (ACHN): 31.4 µM (inactive)
GI50 (OVCAR-5): > 100 µM (inactive)
GI50 (T47D): 27.3 µM (inactive)
GI50 (MDA-MB-435): 34.4 µM (inactive)
GI50 (OVCAR-8): 15.9 µM (inactive)

O=C1Nc2ccccc2/C1=N/NC(=S)Nc1ccc([N+](=O)[O-])cc1
GI50 (K562): 2.88 µM (inactive)
GI50 (NCI/ADR-RES): 3.01 µM (inactive)
GI50 (MDA-N): 11.4 µM (inactive)
GI50 (UO-31): 4.81 µM (inactive)
GI50 (CCRF-CEM): 1.53 µM (inactive)
GI50 (MOLT-4): 2.28 µM (inactive)
GI50 (HCC 2998): 11.3 µM (inactive)
GI50 (PC-3): 3.17 µM (inactive)
GI50 (HOP-92): 13.2 µM (inactive)
GI50 (EKVX): 12.3 µM (inactive)
GI50 (SNB-19): 10.7 µM (inactive)
GI50 (ACHN): 6.84 µM (inactive)
GI50 (OVCAR-5): 22.9 µM (inactive)
GI50 (T47D): 10.4 µM (inactive)
GI50 (MDA-MB-435): 6.19 µM (inactive)
GI50 (RPMI-8226): 13.5 µM (inactive)
GI50 (OVCAR-8): 1.77 µM (inactive)

O=c1oc2c(Cl)cc(Cl)cc2cc1-c1cn2c(n1)sc1ccccc12
GI50 (K562): 20.2 µM (inactive)
GI50 (NCI/ADR-RES): > 100 µM (inactive)
GI50 (MDA-N): 38.6 µM (inactive)
GI50 (UO-31): 36.1 µM (inactive)
GI50 (CCRF-CEM): 17.3 µM (inactive)
GI50 (MOLT-4): 20.4 µM (inactive)
GI50 (HCC 2998): 24.5 µM (inactive)
GI50 (PC-3): 47.1 µM (inactive)
GI50 (HOP-92): 56.1 µM (inactive)
GI50 (RXF 393): 31.2 µM (inactive)
GI50 (EKVX): 65.8 µM (inactive)
GI50 (SNB-19): > 100 µM (inactive)
GI50 (ACHN): 65.3 µM (inactive)
GI50 (OVCAR-5): > 100 µM (inactive)
GI50 (T47D): 49.8 µM (inactive)
GI50 (MDA-MB-435): 38.4 µM (inactive)
GI50 (RPMI-8226): 24.7 µM (inactive)
GI50 (OVCAR-8): 87.1 µM (inactive)

Oc1ccc(O)c(Cc2ccccc2)c1
GI50 (K562): 10.6 µM (inactive)
GI50 (A498): 43.9 µM (inactive)
GI50 (NCI/ADR-RES): 16.4 µM (inactive)
GI50 (MDA-N): 18 µM (inactive)
GI50 (UO-31): 15.1 µM (inactive)
GI50 (CCRF-CEM): 7.41 µM (inactive)
GI50 (MOLT-4): 6.7 µM (inactive)
GI50 (HCC 2998): 93.1 µM (inactive)
GI50 (PC-3): 27.9 µM (inactive)
GI50 (HOP-92): 16.3 µM (inactive)
GI50 (EKVX): 38.5 µM (inactive)
GI50 (SNB-19): 53.1 µM (inactive)
GI50 (ACHN): 14.8 µM (inactive)
GI50 (OVCAR-5): 57.5 µM (inactive)
GI50 (T47D): 0.0887 µM (active)
GI50 (MDA-MB-435): 19.5 µM (inactive)
GI50 (RPMI-8226): 3.61 µM (inactive)
GI50 (OVCAR-8): 15.4 µM (inactive)

COc1ccc(/C=C/c2ccnc3ccccc23)cc1
GI50 (K562): 6.34 µM (inactive)
GI50 (A498): 14.1 µM (inactive)
GI50 (NCI/ADR-RES): 14.2 µM (inactive)
GI50 (MDA-N): 16.6 µM (inactive)
GI50 (UO-31): 0.021 µM (active)
GI50 (CCRF-CEM): 10.5 µM (inactive)
GI50 (MOLT-4): 12.2 µM (inactive)
GI50 (HCC 2998): 20.1 µM (inactive)
GI50 (PC-3): 18.2 µM (inactive)
GI50 (HOP-92): 4.66 µM (inactive)
GI50 (RXF 393): 19.3 µM (inactive)
GI50 (EKVX): 13.1 µM (inactive)
GI50 (SNB-19): 19.3 µM (inactive)
GI50 (ACHN): 13.9 µM (inactive)
GI50 (OVCAR-5): 21.4 µM (inactive)
GI50 (T47D): 4.9 µM (inactive)
GI50 (MDA-MB-435): 17.1 µM (inactive)
GI50 (RPMI-8226): 10.7 µM (inactive)

— ChEMBL document CHEMBL1201862, “PubChem BioAssay data set” (2004)
